Reference: US10167262B2, “Herbicidal substituted 3-arylpyrazoles” (FMC CORPORATION, priority 2014, dated 2019)
Like-named read-outs stand apart in the source and are kept apart here.

How the values were obtained:
Type in all cases: in vivo
[1] = system: morningglory (Ipomoea spp.); experiment: Test A pre-/postemergence greenhouse herbicide test, visual injury rating 0-100; details: Ipomoea, pre-emergence, 240 h; Preemergence, 1000 g ai/ha; read-out: Plant response rating (0 to 100 scale), Morningglory
Method in brief: (§1)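 Directed soil spray (pre) and foliar spray (post, 1–2 leaf) of solvent/surfactant-formulated compound; greenhouse ~10 d; visual injury 0–100 vs untreated controls.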

[2] = system: pigweed (Amaranthus retroflexus); experiment: as above; details: Amaranthus retroflexus, 240 h, 1000 g ai/ha, read-out: Plant response rating (0 to 100 scale), Pigweed
Method in brief: as §1

[3] = system: giant foxtail (Setaria faberii); experiment: as above; details: Setaria faberi, 240 h, 1000 g ai/ha, read-out: Plant response rating (0 to 100 scale), Foxtail, Giant
Method in brief: as §1

[4] = system: velvetleaf (Abutilon theophrasti); experiment: as above; details: Abutilon theophrasti, 240 h, 1000 g ai/ha, read-out: Plant response rating (0 to 100 scale), Velvetleaf
Method in brief: as §1

[5] = system: wheat (Triticum aestivum); experiment: as above; details: Triticum aestivum, 240 h, 1000 g ai/ha, read-out: Plant response rating (0 to 100 scale), Wheat
Method in brief: as §1

[6] = system: barnyardgrass (Echinochloa crus-galli); experiment: as above; details: Echinochloa crus-galli, 240 h, 1000 g ai/ha, read-out: Plant response rating (0 to 100 scale), Barnyardgrass
Method in brief: as §1

[7] = system: large (Lg) crabgrass (Digitaria sanguinalis); experiment: as above; details: Digitaria sanguinalis, 240 h, 1000 g ai/ha, read-out: Plant response rating (0 to 100 scale), Crabgrass, Large
Method in brief: as §1

[8] = system: corn (Zea mays); experiment: as above; details: Zea mays, 240 h, 1000 g ai/ha, read-out: Plant response rating (0 to 100 scale), Corn
Method in brief: as §1

[9] = system: ragweed (common ragweed, Ambrosia elatior); experiment: Test C pre-/postemergence greenhouse test, plant response rating 0-100; details: Ambrosia artemisiifolia; for pest or weed control at 62 g/ha: 62 g ai/ha; for pest or weed control at 125 g/ha: 125 g ai/ha; for pest or weed control at 250 g/ha: 250 g ai/ha; for pest or weed control at 500 g/ha: 500 g ai/ha;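 as to all read-outs here: 0 is no effect and 100 is complete control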
Method in brief: (§2)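 Plants were scored visually against controls 13–15 days after treatment on a 0–100 scale, 100 meaning complete control. Test chemicals, formulated in surfactant-containing non-phytotoxic solvent, went preemergence onto seeds in loam–sand blend or postemergence onto 1- to 4-leaf plants (2–18 cm) grown in peat-based mix.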

[10] = system: yellow nutsedge (Cyperus esculentus); experiment: as above; details: Cyperus; for pest or weed control at 62 g/ha: 62 g ai/ha; for pest or weed control at 125 g/ha: 125 g ai/ha; for pest or weed control at 250 g/ha: 250 g ai/ha; for pest or weed control at 500 g/ha: 500 g ai/ha
Method in brief: as §2

[11] = system: galium (catchweed bedstraw, Galium aparine); experiment: as above; details: Galium; for pest or weed control at 62 g/ha: 62 g ai/ha; for pest or weed control at 125 g/ha: 125 g ai/ha; for pest or weed control at 250 g/ha: 250 g ai/ha; for pest or weed control at 500 g/ha: 500 g ai/ha
Method in brief: as §2

[12] = system: large (Lg) crabgrass (Digitaria sanguinalis); experiment: as above; details: Digitaria sanguinalis; for pest or weed control at 62 g/ha: 62 g ai/ha; for pest or weed control at 125 g/ha: 125 g ai/ha; for pest or weed control at 250 g/ha: 250 g ai/ha; for pest or weed control at 500 g/ha: 500 g ai/ha
Method in brief: as §2

[13] = system: Italian ryegrass (Lolium multiflorum); experiment: as above; details: Lolium multiflorum; for pest or weed control at 62 g/ha: 62 g ai/ha; for pest or weed control at 125 g/ha: 125 g ai/ha; for pest or weed control at 250 g/ha: 250 g ai/ha; for pest or weed control at 500 g/ha: 500 g ai/ha
Method in brief: as §2

[14] = post-emergence, Postemergence, read-out: Plant response rating (0 to 100), Ragweed
[15] = post-emergence, Postemergence, scale 0 to 100
[16] = pre-emergence, Preemergence, read-out: Plant response rating, Ragweed
[17] = post-emergence, Postemergence, read-out: Plant response rating (0 to 100), Nutsedge, Yellow
[18] = pre-emergence, Preemergence, read-out: Plant response rating, Nutsedge, Yellow
[19] = post-emergence, Postemergence, read-out: Plant response rating (0 to 100), Galium
[20] = pre-emergence, Preemergence, read-out: Plant response rating, Galium
[21] = post-emergence, Postemergence, read-out: Plant response rating (0 to 100), Crabgrass, Large
[22] = pre-emergence, Preemergence, read-out: Plant response rating, Crabgrass, Large
[23] = post-emergence, Postemergence, read-out: Plant response rating (0 to 100), Ryegrass, Italian
[24] = pre-emergence, Preemergence, read-out: Plant response rating, Ryegrass, Italian

Q: What does the source list for C#CCn1cc(C(=O)c2ccccc2)c(-c2cc(Cl)cc(Cl)c2)n1 [Compound 39, [3-(3,5-dichlorophenyl)-1-(2-propyn-1-yl)-1H-pyrazol-4-yl]phenylmethanone]?
A: pest or weed control at 1000 g/ha [1]: 0%; pest or weed control at 1000 g/ha ([2]; post-emergence, Postemergence): 100%; pest or weed control at 1000 g/ha ([2]; pre-emergence, Preemergence): 100%; pest or weed control at 1000 g/ha ([3]; post-emergence, Postemergence): 0%; pest or weed control at 1000 g/ha ([3]; pre-emergence, Preemergence): 0%; pest or weed control at 1000 g/ha ([4]; post-emergence, Postemergence): 100%; pest or weed control at 1000 g/ha ([4]; pre-emergence, Preemergence): 100%; plant injury at 1000 g/ha ([5]; post-emergence, Postemergence): 0%; plant injury at 1000 g/ha ([5]; pre-emergence, Preemergence): 0%; pest or weed control at 1000 g/ha ([6]; post-emergence, Postemergence): 0%; pest or weed control at 1000 g/ha ([6]; pre-emergence, Preemergence): 0%; pest or weed control at 1000 g/ha ([7]; post-emergence, Postemergence): 0%; pest or weed control at 1000 g/ha ([7]; pre-emergence, Preemergence): 0%; plant injury at 1000 g/ha ([8]; post-emergence, Postemergence): 0%; plant injury at 1000 g/ha ([8]; pre-emergence, Preemergence): 0%; pest or weed control at 62 g/ha [9, 14]: 10%; pest or weed control at 125 g/ha [9, 14]: 10%; pest or weed control at 250 g/ha [9, 15]: 35%; pest or weed control at 500 g/ha [9, 15]: 35%; pest or weed control at 62 g/ha [9, 16]: 0%; pest or weed control at 125 g/ha [9, 16]: 20%; pest or weed control at 250 g/ha ([9]; pre-emergence, Preemergence): 45%; pest or weed control at 500 g/ha ([9]; pre-emergence, Preemergence): 45%; pest or weed control at 62 g/ha [10, 17]: 0%; pest or weed control at 125 g/ha [10, 17]: 0%; pest or weed control at 250 g/ha [10, 15]: 0%; pest or weed control at 500 g/ha [10, 15]: 5%; pest or weed control at 62 g/ha [10, 18]: 0%; pest or weed control at 125 g/ha [10, 18]: 0%; pest or weed control at 250 g/ha ([10]; pre-emergence, Preemergence): 0%; pest or weed control at 500 g/ha ([10]; pre-emergence, Preemergence): 0%; pest or weed control at 62 g/ha [11, 19]: 0%; pest or weed control at 125 g/ha [11, 19]: 0%; pest or weed control at 250 g/ha [11, 15]: 0%; pest or weed control at 500 g/ha [11, 15]: 0%; pest or weed control at 62 g/ha [11, 20]: 0%; pest or weed control at 125 g/ha [11, 20]: 0%; pest or weed control at 250 g/ha ([11]; pre-emergence, Preemergence): 5%; pest or weed control at 500 g/ha ([11]; pre-emergence, Preemergence): 80%; pest or weed control at 62 g/ha [12, 21]: 0%; pest or weed control at 125 g/ha [12, 21]: 0%; pest or weed control at 250 g/ha [12, 15]: 5%; pest or weed control at 500 g/ha [12, 15]: 15%; pest or weed control at 62 g/ha [12, 22]: 0%; pest or weed control at 125 g/ha [12, 22]: 0%; pest or weed control at 250 g/ha ([12]; pre-emergence, Preemergence): 0%; pest or weed control at 500 g/ha ([12]; pre-emergence, Preemergence): 0%; pest or weed control at 62 g/ha [13, 23]: 0%; pest or weed control at 125 g/ha [13, 23]: 0%; pest or weed control at 250 g/ha [13, 15]: 0%; pest or weed control at 500 g/ha [13, 15]: 0%; pest or weed control at 62 g/ha [13, 24]: 0%; pest or weed control at 125 g/ha [13, 24]: 0%; pest or weed control at 250 g/ha ([13]; pre-emergence, Preemergence): 0%; pest or weed control at 500 g/ha ([13]; pre-emergence, Preemergence): 0%
